Experimental data from BigSolDB 2.1.

Nc1cccc(C(=O)O)c1O
solubility (mole fraction)
Conditions | 293.2 K | 298.2 K | 303.2 K | 308.2 K | 313.2 K
in ethanol | 0.000186 | 0.000238 | 0.000285 | 0.000332 | 0.000386
in water | 0.000113 | 0.000126 | 0.000141 | 0.00016 | 0.000178
